One experiment concerns JNK1. As to conditions: cited from earlier work.
The target of the next experiment is JNK3 (Homo sapiens, UniProt P53779). In words: HTRF enzyme inhibition assay, JNK3. Type of experiment: biochemical. Here is the method: Homogeneous Time-resolved Fluorescence Assay (HTRF)
Enzyme inhibition assays to determine IC50 values for the kinases were performed as described previously.

Sequence of JNK3 (P53779 whole entry): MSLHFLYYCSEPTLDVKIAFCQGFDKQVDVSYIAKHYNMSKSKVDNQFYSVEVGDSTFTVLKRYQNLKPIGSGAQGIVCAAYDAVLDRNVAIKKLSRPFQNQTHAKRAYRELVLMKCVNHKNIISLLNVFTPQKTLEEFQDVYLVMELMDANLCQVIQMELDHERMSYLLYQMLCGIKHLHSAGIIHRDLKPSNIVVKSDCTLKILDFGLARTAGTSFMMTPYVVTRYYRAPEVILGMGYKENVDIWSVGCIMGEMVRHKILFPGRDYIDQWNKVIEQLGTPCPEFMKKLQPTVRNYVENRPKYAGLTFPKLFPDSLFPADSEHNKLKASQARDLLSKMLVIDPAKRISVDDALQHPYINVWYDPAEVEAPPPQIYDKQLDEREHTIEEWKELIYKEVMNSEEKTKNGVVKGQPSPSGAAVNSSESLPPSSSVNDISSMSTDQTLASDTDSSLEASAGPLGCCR

As for `Cc1ccc(-n2nc(C(C)(C)C)cc2NC(=O)Nc2ccc(OCCN3CCOCC3)c3ccccc23)cc1` [BIRB796], in the experiment on JNK1, the “affinity for JNK1” value is “no affinity”.

`CNC(=O)c1cc(-n2ncc3cc(Nc4c(F)cccc4Cl)c(CN4CCC4)cc32)cs1` [Compound 21G] returned an IC50 on JNK3 of 0.137 µM.

Take `CNC(=O)c1cc(-n2ncc3cc(Nc4c(F)cccc4Cl)c(COC)cc32)cs1` [Compound 21J]: at JNK3, the IC50 turned out to be 0.006 µM.

For the compound `COc1ccccc1Nc1cc2cnn(-c3cc(C(=O)NC4COC4)sc3C)c2cc1F` [Compound 23GA], the IC50 on JNK3 was 1 µM.

With `COc1ccccc1Nc1cc2cnn(-c3csc(C(=O)NC4COC4)c3)c2cc1F` [Compound 23M], at JNK3, the IC50 was 0.014 µM. Against the preceding compound, the IC50 is about 71-fold lower.

The IC50 is the midpoint of a concentration-inhibition curve. A high value points to weaker potency in that assay.
